In patent publication US6432921B1, “Thrombin inhibitors” (Akzo Nobel N.V., priority 1995, dated 2002):

target: T1, Human thrombin (Homo sapiens, UniProt P00734); experiment: Anti-thrombin assay: rate of hydrolysis of chromogenic substrate S-2238 by thrombin; format: biochemical; details: TNP buffer pH 7.4, 37° C., substrate S-2238, absorbance at 405 nm; concentration causing 50% inhibition of the maximum absorbance of the blank
T1 construct: purchased Centraal Laboratorium voor Bloedtransfusie, Amsterdam, The Netherlands
Experimental: Thrombin (Factor IIa) is a factor in the coagulation cascade.
The anti-thrombin activity of compounds of the present invention was assessed by measuring spectrophotometrically the rate of hydrolysis of the chromogenic substrate s-2238 exterted by thrombin. This assay for anti-thrombin activity in a buffer system was used to assess the IC50-value of a test compound.
Test medium: Tromethamine-NaCl-polyethylene glycol 6000 (TNP) buffer. Reference compound: I2581 (Kabi) Vehicle:TNP buffer. Solubilisation can be assisted with dimethylsulphoxide, methanol, ethanol, acetonitrile or tert.-butyl alcohol which are without adverse effects in concentrations up to 2.5% in the final reaction mixture.
Technique Reagents*: 1. Tromethamine-NaCl (TN) buffer. Composition of the buffer: Tromethamine(Tris) 6.057 g (50 mmol), NaCl 5.844 g (100 mmol), water to 1 l. The pH of the solution is adjusted to 7.4 at 37° C. with HCl (10 mmol·l^−1). 2. TNP buffer: Polyethylene glycol 6000 is dissolved in TN buffer to give a concentration of 3 g·l^−1. 3. S-2238 solution: One vial S-2238 (25 mg; Kabi Diagnostica, Sweden) is dissolved in 20 ml TN buffer to give a concentration of 1.25 mg·ml^−1 (2 mmol·l^−1). 4. Thrombin solution: Human thrombin (16 000 nKat·vial^−1; Centraal Laboratorium voor Bloedtransfusie, Amsterdam, The Netherlands) is dissolved in TNP buffer to give a stock solution of 835 nKat·ml^−1. Immediately before use this solution is diluted with TNP buffer to give a concentration of 3.34 nKat·ml^−1.
* All ingredients used are of analytical grade
For aqueous solutions ultrapure water (Milli-Q quality) is used.
Preparation of Test and Reference Compound Solutions
The test and reference compounds are dissolved in Milli-Q water to give stock concentrations of 10^−2 mol·l^−1. Each concentration is stepwise diluted with the vehicle to give concentrations of 10^−3, 10^−4 and 10^−5 mol·l^−1. […]
At room temperature 0.075 ml and 0.025 ml test compound or reference compound solutions or vehicle are alternately pipetted into the wells of a microtiter plate and these solutions are diluted with 0.115 ml and 0.0165 ml TNP buffer, respectively. […] Starting after 1 min of incubation, the absorbance of each sample at 405 nm is measured every 2 min. for a period of 90 min. using a kinetic microtiter plate reader (Twinreader plus, Flow Laboratories).
All data are collected in an IBM personal computer using LOTUS-MEASURE. For each compound concentration (expressed in mol·l^−1 reaction mixture) and for the blank the absorbance is plotted versus the reaction time in min.
Evaluation of responses: For each final concentration the maximum absorbance was calculated from the assay plot. […]

Row | IC50 [µM] | SMILES
1 | 4.5 | NCCCCC(NC(=O)CN(C(=O)C(N)Cc1ccccc1)C1CCCC1)C(=O)c1nccs1 [2(e), H—D-Phe-(N-cyclopentyl)-Gly-Lys-(2-thiazolyl)]
2 | 4.34 | NCCCCC(NC(=O)CN(C(=O)CCc1ccccc1)C1CCCC1)C(=O)C(=O)O (stereo not shown) [4(b), 3-Phenylpropionyl-(N-cyclopentyl)-Gly-LysΨ[COCO]—OH]
3 | 19 | NCCCC[C@H](NC(=O)[C@@H]1CCCN1C(=O)[C@@H](Cc1ccc(F)cc1)NCC(=O)O)C(=O)c1nccs1 [Example 39, HOOC—CH2—D-p-F-Phe-Pro-Lys-(2-thiazolyl)]
4 | 0.135 | NCCCCC(NC(=O)CN1CCCCC(NS(=O)(=O)Cc2ccccc2)C1=O)C(=O)C(=O)O (stereo not shown) [Example 41, BzlSO2-norLeu(cyclo)Gly-LysΨ[COCO]—OH]
